Measurements: patent publication US20240383953A1, “NOVEL NAN[…] NANOG PRION-LIKE REPEATS” (BAYLOR COLLEGE OF MEDICINE, priority 2021, published 2024)
Residues, ends and D or L forms follow the SMILES beside them.

Assay: WR peptide solubility (supernatant to pellet ratio after centrifugation)
Format: physicochemical
Details: 0.1 and 0.2 mg/mL
Description: FIGS. 7A-7H provide data and illustrations related to the fibrillation propensities of NANOG WR-derived peptides. FIG. 7A illustrates NANOG domain organization and the human and mouse NANOG WR-derived peptides used in Example 2. […] Right panels show aggregation kinetics for peptides 1-3 w (top) and 1-4 w (bottom) after 1 min equilibration. Similar results were obtained from two independent experiments. […] Similar results were obtained from two independent experiments. […] Similar results were obtained from two independent experiments. […] Similar results were obtained from two independent preparations. […]
Amino acids of the synthesized peptides were classified into aromatic, polar, charged and structure breakers (FIG. 7B). Applicant observed a striking degree of correlation between amino acid type distribution, and the peptide's solubilities and aggregation propensities, as monitored by Thioflavin T (ThT, amyloid binding dye) aggregation kinetics assay (FIGS. 7B-7D). Formation of β-sheet fibrils were confirmed by CD spectroscopy and Transmission Electron Microscopy. Hydrophobic/aromatic residues as well as polar residues such as Gln and Asn are commonly found in amyloid or prion-like domains. On the other hand, charged and ‘structure breaker’ residues such as Gly and Pro contribute to the peptide's higher solubility. […] Aggregation kinetics was rapid; 1-4w reached maximal ThT fluorescence within 2-3 min and 1-3w ˜20 min (FIG. 7D).

Question: For `C[C@@H](O)[C@H](NC(=O)[C@H](CCC(N)=O)NC(=O)[C@H](CC(N)=O)NC(=O)[C@H](CO)NC(=O)[C@@H](N)Cc1c[nH]c2ccccc12)C(=O)N[C@@H](CCCCN)C(=O)O` [1w, WSNQTK] (H-WSNQTK-OH; N-terminus and C-terminus assumed), which peptide solubility is on record?
Answer: Its peptide solubility is “very soluble”.

Question: For `C[C@@H](O)[C@H](NC(=O)[C@H](CO)NC(=O)[C@H](CC(N)=O)NC(=O)[C@H](CC(N)=O)NC(=O)[C@H](Cc1c[nH]c2ccccc12)NC(=O)[C@@H](NC(=O)[C@H](CCC(N)=O)NC(=O)[C@H](CC(N)=O)NC(=O)[C@H](CO)NC(=O)[C@@H](N)Cc1c[nH]c2ccccc12)[C@@H](C)O)C(=O)N[C@@H](CCCCN)C(=O)O` [1-2w] (H-WSNQTWNNSTK-OH; N-terminus and C-terminus assumed), which peptide solubility is on record?
Answer: The peptide solubility was “very soluble”.

Question: With `CC[C@H](C)[C@H](NC(=O)[C@H](CC(N)=O)NC(=O)[C@H](CCC(N)=O)NC(=O)[C@@H](NC(=O)[C@H](CCC(N)=O)NC(=O)[C@H](CC(N)=O)NC(=O)[C@H](CO)NC(=O)[C@H](C)NC(=O)[C@@H](NC(=O)[C@H](CO)NC(=O)[C@H](CC(N)=O)NC(=O)[C@H](CC(N)=O)NC(=O)[C@H](C)NC(=O)[C@@H](NC(=O)[C@H](CCC(N)=O)NC(=O)[C@H](CC(N)=O)NC(=O)[C@H](CO)NC(=O)[C@H](C)N)[C@@H](C)O)[C@@H](C)O)[C@@H](C)O)C(=O)N[C@@H](CCC(N)=O)C(=O)N[C@@H](CO)C(=O)N[C@@H](Cc1c[nH]c2ccccc12)C(=O)N[C@@H](CO)C(=O)N[C@@H](CC(N)=O)C(=O)N[C@@H](Cc1c[nH]cn1)C(=O)N[C@@H](CO)C(=O)N[C@@H](CCCCN)C(=O)O` [1-4wa] (H-ASNQTANNSTASNQTQNIQSWSNHSK-OH; N-terminus and C-terminus assumed) as the compound, how does the peptide solubility read?
Answer: Its peptide solubility is “increased solubility”.

Question: For `C[C@@H](O)[C@H](NC(=O)[C@H](CCC(N)=O)NC(=O)[C@H](CC(N)=O)NC(=O)[C@H](CO)NC(=O)[C@H](Cc1c[nH]c2ccccc12)NC(=O)[C@@H](NC(=O)[C@H](CO)NC(=O)[C@H](CC(N)=O)NC(=O)[C@H](CC(N)=O)NC(=O)[C@H](Cc1c[nH]c2ccccc12)NC(=O)[C@@H](NC(=O)[C@H](CCC(N)=O)NC(=O)[C@H](CC(N)=O)NC(=O)[C@H](CO)NC(=O)[C@@H](N)Cc1c[nH]c2ccccc12)[C@@H](C)O)[C@@H](C)O)C(=O)N[C@@H](CCCCN)C(=O)O` [1-3w] (H-WSNQTWNNSTWSNQTK-OH; N-terminus and C-terminus assumed), which peptide solubility is on record?
Answer: Its peptide solubility is “more insoluble”.

Question: Which peptide solubility does the source give for `CC[C@H](C)[C@H](NC(=O)[C@H](CC(N)=O)NC(=O)[C@H](CCC(N)=O)NC(=O)[C@@H](NC(=O)[C@H](CCC(N)=O)NC(=O)[C@H](CC(N)=O)NC(=O)[C@H](CO)NC(=O)[C@H](Cc1c[nH]c2ccccc12)NC(=O)[C@@H](NC(=O)[C@H](CO)NC(=O)[C@H](CC(N)=O)NC(=O)[C@H](CC(N)=O)NC(=O)[C@H](Cc1c[nH]c2ccccc12)NC(=O)[C@@H](NC(=O)[C@H](CCC(N)=O)NC(=O)[C@H](CC(N)=O)NC(=O)[C@H](CO)NC(=O)[C@@H](N)Cc1c[nH]c2ccccc12)[C@@H](C)O)[C@@H](C)O)[C@@H](C)O)C(=O)N[C@@H](CCC(N)=O)C(=O)N[C@@H](CO)C(=O)N[C@@H](Cc1c[nH]c2ccccc12)C(=O)N[C@@H](CO)C(=O)N[C@@H](CC(N)=O)C(=O)N[C@@H](Cc1c[nH]cn1)C(=O)N[C@@H](CO)C(=O)N[C@@H](CCCCN)C(=O)O` [1-4w] (H-WSNQTWNNSTWSNQTQNIQSWSNHSK-OH; N-terminus and C-terminus assumed) here?
Answer: The peptide solubility was “more insoluble”.
